Laboratory results published in ChEMBL document CHEMBL1649156, “Antianaerobic activity of sulopenem compared to six other agents” (2009).

Experiments:
Assay type in all cases: functional
Prevotella disiens = experiment: Antimicrobial activity in Prevotella disiens by CLSI agar dilution method in presence of Tazobactam
Prevotella baroniae = experiment: Antimicrobial activity in Prevotella baroniae by CLSI agar dilution method in presence of Tazobactam; conditions: Segatella baroniae
Hoylesella oralis = experiment: Antimicrobial activity in Prevotella oralis group by CLSI agar dilution method in presence of Tazobactam
Prevotella veroralis = experiment: Antimicrobial activity in Prevotella veroralis by CLSI agar dilution method in presence of Tazobactam
Prevotella bergensis = experiment: Antimicrobial activity in Prevotella bergensis by CLSI agar dilution method in presence of Tazobactam; conditions: Hallella bergensis
Prevotella salivae = experiment: Antimicrobial activity in Prevotella salivae by CLSI agar dilution method in presence of Tazobactam; conditions: Segatella salivae
Hoylesella loescheii = experiment: Antimicrobial activity in Prevotella loescheii by CLSI agar dilution method in presence of Tazobactam
Prevotella sp. = experiment: Antimicrobial activity in Prevotella sp.by CLSI agar dilution method in presence of Tazobactam
[1] = tested on: Porphyromonas asaccharolytica; experiment: Antimicrobial activity in Porphyromonas asaccharolytica by CLSI agar dilution method in presence of Tazobactam
Fusobacterium nucleatum = experiment: Antimicrobial activity in Fusobacterium nucleatum by CLSI agar dilution method in presence of Tazobactam
[2] = tested on: Fusobacterium necrophorum; experiment: Antimicrobial activity in Fusobacterium necrophorum by CLSI agar dilution method in presence of Tazobactam
Fusobacterium mortiferum = experiment: Antimicrobial activity in Fusobacterium mortiferum by CLSI agar dilution method in presence of Tazobactam
Fusobacterium varium = experiment: Antimicrobial activity in Fusobacterium varium by CLSI agar dilution method in presence of Tazobactam
Finegoldia magna = experiment: Antimicrobial activity in Finegoldia magna by CLSI agar dilution method in presence of Tazobactam
Parvimonas micra = experiment: Antimicrobial activity in Micromonas micros by CLSI agar dilution method in presence of Tazobactam
[3] = tested on: Peptostreptococcus anaerobius; experiment: Antimicrobial activity in Peptostreptococcus anaerobius by CLSI agar dilution method in presence of Tazobactam
[4] = tested on: Peptoniphilus asaccharolyticus; experiment: Antimicrobial activity in Peptoniphilus asaccharolyticus by CLSI agar dilution method in presence of Tazobactam
Anaerococcus tetradius = experiment: Antimicrobial activity in Anaerococcus tetradius by CLSI agar dilution method in presence of Tazobactam
Anaerococcus prevotii = experiment: Antimicrobial activity in Anaerococcus prevotii by CLSI agar dilution method in presence of Tazobactam
Lactobacillus = experiment: Antimicrobial activity in Lactobacillus by CLSI agar dilution method in presence of Tazobactam
Bifidobacterium = experiment: Antimicrobial activity in Bifidobacterium by CLSI agar dilution method in presence of Tazobactam
Cutibacterium acnes = experiment: Antimicrobial activity in Propionibacterium acnes by CLSI agar dilution method in presence of Tazobactam
Actinomyces = experiment: Antimicrobial activity in Actinomyces by CLSI agar dilution method in presence of Tazobactam
Eggerthella lenta = experiment: Antimicrobial activity in Eggerthella lenta by CLSI agar dilution method in presence of Tazobactam
Clostridium perfringens = experiment: Antimicrobial activity in Clostridium perfringens by CLSI agar dilution method in presence of Tazobactam
Clostridioides difficile = experiment: Antimicrobial activity in Clostridium difficile by CLSI agar dilution method in presence of Tazobactam
Clostridium sp. = experiment: Antimicrobial activity in Clostridium sp. by CLSI agar dilution method in presence of Tazobactam
Clostridium tertium = experiment: Antimicrobial activity in Clostridium tertium by CLSI agar dilution method in presence of Tazobactam
Thomasclavelia ramosa = experiment: Antimicrobial activity in Clostridium ramosum by CLSI agar dilution method in presence of Tazobactam
Clostridium cadaveris = experiment: Antimicrobial activity in Clostridium cadaveris by CLSI agar dilution method in presence of Tazobactam
[5] = tested on: Paraclostridium bifermentans; experiment: Antimicrobial activity in Clostridium bifermentans by CLSI agar dilution method in presence of Tazobactam
[Clostridium] innocuum = Antimicrobial activity in Clostridium innocuum by CLSI agar dilution method in presence of Tazobactam
[6] = tested on: Paeniclostridium sordellii; experiment: Antimicrobial activity in Clostridium sordellii by CLSI agar dilution method in presence of Tazobactam; conditions: Paraclostridium sordellii
Clostridium butyricum = experiment: Antimicrobial activity in Clostridium butyricum by CLSI agar dilution method in presence of Tazobactam
Bacteroides fragilis = experiment: Antimicrobial activity in Bacteroides fragilis by CLSI agar dilution method in presence of Tazobactam
[7] = tested on: Bacteroides thetaiotaomicron; experiment: Antimicrobial activity in Bacteroides thetaiotaomicron by CLSI agar dilution method in presence of Tazobactam
Bacteroides ovatus = experiment: Antimicrobial activity in Bacteroides ovatus by CLSI agar dilution method in presence of Tazobactam
Phocaeicola vulgatus = experiment: Antimicrobial activity in Bacteroides vulgatus by CLSI agar dilution method in presence of Tazobactam
[8] = tested on: Parabacteroides distasonis; experiment: Antimicrobial activity in Bacteroides distasonis by CLSI agar dilution method in presence of Tazobactam
Bacteroides uniformis = experiment: Antimicrobial activity in Bacteroides uniformis by CLSI agar dilution method in presence of Tazobactam
Bacteroides stercoris = experiment: Antimicrobial activity in Bacteroides stercoris by CLSI agar dilution method in presence of Tazobactam
Prevotella bivia = experiment: Antimicrobial activity in Prevotella bivia by CLSI agar dilution method in presence of Tazobactam
Prevotella buccae = experiment: Antimicrobial activity in Prevotella buccae by CLSI agar dilution method in presence of Tazobactam; conditions: Segatella buccae
[9] = tested on: Prevotella melaninogenica; experiment: Antimicrobial activity in Prevotella melaninogenica by CLSI agar dilution method in presence of Tazobactam
Prevotella denticola = experiment: Antimicrobial activity in Prevotella denticola by CLSI agar dilution method in presence of Tazobactam
Prevotella intermedia = experiment: Antimicrobial activity in Prevotella intermedia by CLSI agar dilution method in presence of Tazobactam
Prevotella nigrescens = experiment: Antimicrobial activity in Prevotella nigrescens by CLSI agar dilution method in presence of Tazobactam
Prevotella corporis = experiment: Antimicrobial activity in Prevotella corporis by CLSI agar dilution method in presence of Tazobactam
[10] = tested on: Enterocloster clostridioformis; experiment: Antimicrobial activity in Clostridium clostridioforme by CLSI agar dilution method in presence of Tazobactam
Tissierella praeacuta = experiment: Antimicrobial activity in Clostridium hastiforme by CLSI agar dilution method in presence of Tazobactam
Porphyromonas gingivalis = experiment: Antimicrobial activity in Porphyromonas gingivalis by CLSI agar dilution method in presence of Tazobactam

CCN1CCN(C(=O)N[C@@H](C(=O)N[C@@H]2C(=O)N3[C@@H]2SC(C)(C)[C@@H]3C(=O)O)c2ccccc2)C(=O)C1=O [PIPERACILLIN]
MIC (Prevotella disiens): ≤ 0.125 µg/mL | MIC50 (Prevotella disiens): ≤ 0.125 µg/mL | MIC (Prevotella baroniae): ≤ 0.125 µg/mL | MIC (Hoylesella oralis): ≤ 0.125 µg/mL | MIC (Prevotella veroralis): ≤ 0.125 µg/mL | MIC (Prevotella bergensis): ≤ 0.125 µg/mL | MIC (Prevotella salivae): ≤ 0.125 µg/mL | MIC (Hoylesella loescheii): ≤ 0.125 µg/mL | MIC (Prevotella sp.): ≤ 0.125 µg/mL | MIC [1]: ≤ 0.125 µg/mL | MIC (Fusobacterium nucleatum): ≤ 0.125 µg/mL | MIC50 (Fusobacterium nucleatum): ≤ 0.125 µg/mL | MIC90 (Fusobacterium nucleatum): ≤ 0.125 µg/mL | MIC [2]: ≤ 0.125 µg/mL | MIC50 [2]: ≤ 0.125 µg/mL | MIC (Fusobacterium mortiferum): 0.25 µg/mL | MIC50 (Fusobacterium mortiferum): 0.25 µg/mL | MIC90 (Fusobacterium mortiferum): 1 µg/mL | MIC50 (Fusobacterium varium): 4 µg/mL | MIC90 (Fusobacterium varium): 8 µg/mL | MIC (Finegoldia magna): ≤ 0.125 µg/mL | MIC50 (Finegoldia magna): ≤ 0.125 µg/mL | MIC90 (Finegoldia magna): 0.25 µg/mL | MIC (Parvimonas micra): ≤ 0.125 µg/mL | MIC50 (Parvimonas micra): ≤ 0.125 µg/mL | MIC90 (Parvimonas micra): ≤ 0.125 µg/mL | MIC [3]: 0.25 µg/mL | MIC50 [3]: 0.25 µg/mL | MIC90 [3]: 16 µg/mL | MIC [4]: ≤ 0.125 µg/mL | MIC50 [4]: ≤ 0.125 µg/mL | MIC (Anaerococcus tetradius): ≤ 0.125 µg/mL | MIC50 (Anaerococcus tetradius): ≤ 0.125 µg/mL | MIC90 (Anaerococcus tetradius): 0.25 µg/mL | MIC (Anaerococcus prevotii): ≤ 0.125 µg/mL | MIC50 (Lactobacillus): 2 µg/mL | MIC90 (Lactobacillus): 2 µg/mL | MIC (Bifidobacterium): ≤ 0.125 µg/mL | MIC50 (Bifidobacterium): ≤ 0.125 µg/mL | MIC90 (Bifidobacterium): 0.25 µg/mL | MIC50 (Cutibacterium acnes): 0.25 µg/mL | MIC90 (Cutibacterium acnes): 1 µg/mL | MIC (Actinomyces): 0.5 µg/mL | MIC50 (Actinomyces): 1 µg/mL | MIC50 (Eggerthella lenta): 16 µg/mL | MIC90 (Eggerthella lenta): 16 µg/mL | MIC (Clostridium perfringens): ≤ 0.125 µg/mL | MIC50 (Clostridium perfringens): ≤ 0.125 µg/mL | MIC90 (Clostridium perfringens): 0.5 µg/mL | MIC (Clostridioides difficile): 8 µg/mL | MIC50 (Clostridioides difficile): 8 µg/mL | MIC90 (Clostridioides difficile): 16 µg/mL | MIC50 (Clostridium sp.): 1 µg/mL | MIC90 (Clostridium sp.): 2 µg/mL | MIC (Clostridium tertium): 4 µg/mL | MIC50 (Clostridium tertium): 8 µg/mL | MIC (Thomasclavelia ramosa): ≤ 0.125 µg/mL | MIC (Clostridium cadaveris): ≤ 0.125 µg/mL | MIC [5]: 0.5 µg/mL | MIC ([Clostridium] innocuum): ≤ 0.125 µg/mL | MIC [6]: ≤ 0.125 µg/mL | MIC (Clostridium butyricum): 0.5 µg/mL | MIC50 (Bacteroides fragilis): 0.5 µg/mL | MIC90 (Bacteroides fragilis): 2 µg/mL | MIC50 [7]: 8 µg/mL | MIC90 [7]: 16 µg/mL | MIC50 (Bacteroides ovatus): 2 µg/mL | MIC90 (Bacteroides ovatus): 4 µg/mL | MIC50 (Phocaeicola vulgatus): 2 µg/mL | MIC90 (Phocaeicola vulgatus): 16 µg/mL | MIC50 [8]: 4 µg/mL | MIC90 [8]: 4 µg/mL | MIC (Bacteroides uniformis): 0.5 µg/mL | MIC50 (Bacteroides uniformis): 1 µg/mL | MIC (Bacteroides stercoris): ≤ 0.125 µg/mL | MIC50 (Bacteroides stercoris): 1 µg/mL | MIC (Prevotella bivia): ≤ 0.125 µg/mL | MIC50 (Prevotella bivia): ≤ 0.125 µg/mL | MIC90 (Prevotella bivia): ≤ 0.125 µg/mL | MIC (Prevotella buccae): ≤ 0.125 µg/mL | MIC50 (Prevotella buccae): ≤ 0.125 µg/mL | MIC90 (Prevotella buccae): ≤ 0.125 µg/mL | MIC [9]: ≤ 0.125 µg/mL | MIC50 [9]: ≤ 0.125 µg/mL | MIC90 [9]: ≤ 0.125 µg/mL | MIC (Prevotella denticola): ≤ 0.125 µg/mL | MIC50 (Prevotella denticola): ≤ 0.125 µg/mL | MIC90 (Prevotella denticola): ≤ 0.125 µg/mL | MIC (Prevotella intermedia): ≤ 0.125 µg/mL | MIC50 (Prevotella intermedia): ≤ 0.125 µg/mL | MIC90 (Prevotella intermedia): ≤ 0.125 µg/mL | MIC (Prevotella nigrescens): ≤ 0.125 µg/mL | MIC50 (Prevotella nigrescens): ≤ 0.125 µg/mL | MIC90 (Prevotella nigrescens): ≤ 0.125 µg/mL | MIC (Prevotella corporis): ≤ 0.125 µg/mL | MIC50 (Prevotella corporis): ≤ 0.125 µg/mL | MIC [10]: 8 µg/mL | MIC (Tissierella praeacuta): 2 µg/mL | MIC (Porphyromonas gingivalis): ≤ 0.125 µg/mL
